Like-named read-outs stand apart in the source and are kept apart here.
Test system: HBV rcDNA
Experiment: HepDE19 assay with bDNA quantitation of HBV rcDNA
Assay type: cell-based, hepatitis B virus
Method in brief: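 HepDE19 cells (HepG2-derived, Tet-regulated HBV replication) were deprived of tetracycline and then exposed to compounds for 7 days at 37 °C in 0.5% DMSO, 8-point titration from 25 μM. rcDNA was quantified by bDNA and EC50/EC90 came from 4-parameter fits. CC50 was measured by CellTiter-Glo ATP content on replicate plates after 4 days.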

[1] = HepDE19 assay, inhibition of formation of relaxed circular DNA (rcDNA), bDNA quantitation, read-out: DE-19bDNA EC50
[2] = HepDE19 assay, inhibition of formation of rcDNA, read-out: DE-19bDNA EC50
[3] = Hepatitis B virus, HepDE19, HepDE19 assay, inhibition of formation of rcDNA, read-out: DE-19bDNA EC50

Compound	EC50 [1] [µM]	EC50 [2] [µM]	other results
CC(c1c[nH]c(=O)c2c(F)cc(F)cc12)N(C)C(=O)Nc1ccc(F)c(Cl)c1 (single isomer, unassigned) [Compound 368, 3-(3-Chloro-4-fluorophenyl)-1-(1-(6,8-difluoro-1-oxo-1,2-dihydroisoquinolin-4-yl)ethyl)-1-methylurea]	2.5	–	–
CC(c1c[nH]c(=O)c2ccccc12)N(CC1CCOCC1)C(=O)Nc1ccc(F)c(Cl)c1 (single isomer, unassigned) [Compound 141, 3-(3-Chloro-4-fluorophenyl)-1-(1-(1-oxo-1,2-dihydroisoquinolin-4-yl)ethyl)-1-((tetrahydro-2H-pyran-4-yl)methyl)urea]	–	3.4	–
COCCn1cc(C(C)N(C)C(=O)Nc2ccc(F)c(Cl)c2)c2ccccc2c1=O (single isomer, unassigned) [Compound 191, 3-(3-Chloro-4-fluorophenyl)-1-(1-(2-(2-methoxyethyl)-1-oxo-1,2-dihydroisoquinolin-4-yl)ethyl)-1-methylurea]	–	–	EC50 [3]: 0.36 µM
CC(c1c[nH]c(=O)c2ccccc12)N(CCNCC(F)F)C(=O)Nc1ccc(F)c(Cl)c1 (single isomer, unassigned) [Compound 198, 3-(3-Chloro-4-fluorophenyl)-1-(2-((2,2-difluoroethyl)amino)ethyl)-1-(1-(1-oxo-1,2-dihydroisoquinolin-4-yl)ethyl)urea]	–	11.9	–
CC(c1c[nH]c(=O)c2c(F)c(F)ccc12)N(C)C(=O)Nc1ccccc1 (single isomer, unassigned) [Compound 437, 1-(1-(7,8-difluoro-1-oxo-1,2-dihydroisoquinolin-4-yl)ethyl)-1-methyl-3-phenylurea]	–	–	EC50 (read-out: DE-19bDNA EC50, HepDE19 assay, inhibition of formation of relaxed circular DNA (rcDNA), bDNA quantitation): 0.14 µM
CC(c1cnc(OCc2nc[nH]n2)c2cc(F)c(F)cc12)N(CCCO)C(=O)Nc1ccc(F)c(Cl)c1 (single isomer, unassigned) [Compound 364, 1-(1-(1-((1H-1,2,4-Triazol-3-yl)methoxy)-6,7-difluoroisoquinolin-4-yl)ethyl)-3-(3-chloro-4-fluorophenyl)-1-(3-hydroxypropyl)urea]	2	–	–
C[C@H](c1c[nH]c(=O)c2ccccc12)N(C)C(=O)Nc1ccnc(Cl)c1 [Compound 94, (R)-3-(2-Chloropyridin-4-yl)-1-methyl-1-(1-(1-oxo-1,2-dihydroisoquinolin-4-yl)ethyl)urea]	–	–	EC50 (Hepatitis B virus, HepDE19, read-out: DE-19bDNA EC50 (μM), HepDE19 assay, inhibition of formation of rcDNA): 1 µM
COCCCn1cc(C(C)N(C)C(=O)Nc2ccc(F)c(Cl)c2)c2ccccc2c1=O (single isomer, unassigned) [Compound 200, 3-(3-Chloro-4-fluorophenyl)-1-(1-(2-(3-methoxypropyl)-1-oxo-1,2-dihydroisoquinolin-4-yl)ethyl)-1-methylurea]	–	–	EC50 [3]: 0.4 µM
CC(c1c[nH]c(=O)c2cc(F)c(F)cc12)N(C)C(=O)Nc1cc(F)c(F)c(F)c1 (single isomer, unassigned) [Compound 415, 1-(1-(6,7-Difluoro-1-oxo-1,2-dihydroisoquinolin-4-yl)ethyl)-3-(3,4,5-trifluorophenyl)-1-methylurea]	0.021	–	–
CC(c1c[nH]c(=O)c2ccccc12)N(CCC#N)C(=O)Nc1ccc(F)c(Cl)c1 (single isomer, unassigned) [Compound 113, 3-(3-Chloro-4-fluorophenyl)-1-(2-cyanoethyl)-1-(1-(1-oxo-1,2-dihydroisoquinolin-4-yl)ethyl)urea]	–	0.06	–
[2H]C([2H])([2H])N(C(=O)Nc1ccc(F)c(Cl)c1)C(C)c1c[nH]c(=O)c2c(F)c(F)ccc12 (single isomer, unassigned) [Compound 473, 3-(3-Chloro-4-fluorophenyl)-1-(1-(7,8-difluoro-1-oxo-1,2-dihydroisoquinolin-4-yl)ethyl)-1-(methyl-d3)urea]	–	–	EC50 (Hepatitis B virus, HepDE19, read-out: DE-19bDNA EC50 (μM), HepDE19 assay, inhibition of formation of relaxed circular DNA (rcDNA), bDNA quantitation): 0.01 µM
CCN(C(=O)Nc1ccc(F)c(Cl)c1)C(c1ccccc1)c1cnc(OC)c2ccccc12 (single isomer, unassigned) [Compound 60, 3-(3-Chloro-4-fluorophenyl)-1-ethyl-1-((1-methoxyisoquinolin-4-yl)(phenyl)methyl)urea]	–	8.8	–
CC(c1c[nH]c(=O)c2cnccc12)N(C)C(=O)Nc1ccc(F)c(Cl)c1 (centres unmarked) [Compound 111, 3-(3-Chloro-4-fluorophenyl)-1-methyl-1-(1-(1-oxo-1,2-dihydro-2,7-naphthyridin-4-yl)ethyl)urea]	–	–	EC50 [3]: 0.25 µM
CC(c1c[nH]c(=O)c2ccccc12)N(C[C@H](C)O)C(=O)Nc1ccc(F)c(Cl)c1 (single isomer, unassigned) [Compound 218]	–	0.08	–
CCN(C(=O)Nc1ccc(F)c(Cl)c1)C(c1cnc(OC)c2ccccc12)C1CC1 (single isomer, unassigned) [Compound 58, 3-(3-Chloro-4-fluorophenyl)-1-(cyclopropyl(1-methoxyisoquinolin-4-yl)methyl)-1-ethylurea]	–	3.5	–
CC(c1cn(Cc2c[nH]nn2)c(=O)c2ccccc12)N(C)C(=O)Nc1ccc(F)c(Cl)c1 (single isomer, unassigned) [Compound 277, 1-(1-(2-((1H-1,2,3-Triazol-4-yl)methyl)-1-oxo-1,2-dihydroisoquinolin-4-yl)ethyl)-3-(3-chloro-4-fluorophenyl)-1-methylurea]	–	0.79	–
CC(c1c[nH]c(=O)c2ccc(F)cc12)N(CC(CO)CO)C(=O)Nc1ccc(F)c(Cl)c1 (single isomer, unassigned) [Compound 295, 3-(3-Chloro-4-fluorophenyl)-1-(1-(6-fluoro-1-oxo-1,2-dihydroisoquinolin-4-yl)ethyl)-1-(3-hydroxy-2-(hydroxymethyl)propyl)urea]	1.9	–	–
CC(c1cn(Cc2c[nH]nn2)c(=O)c2ccccc12)N(C)C(=O)Nc1ccc(F)c(Cl)c1 (single isomer, unassigned) [Compound 276, 1-(1-(2-((1H-1,2,3-Triazol-4-yl)methyl)-1-oxo-1,2-dihydroisoquinolin-4-yl)ethyl)-3-(3-chloro-4-fluorophenyl)-1-methylurea]	–	2.7	–
COCCN(Cc1cnc(OC)c2ccccc12)C(=O)Nc1ccc(F)c(Cl)c1 [Compound 41, 3-(3-Chloro-4-fluorophenyl)-1-(2-methoxyethyl)-1-((1-methoxyisoquinolin-4-yl)methyl)urea]	–	–	EC50 [3]: 3.8 µM
CC(c1c[nH]c(=O)c2cnccc12)N(CCCO)C(=O)Nc1ccc(F)c(Cl)c1 (centres unmarked) [Compound 159, 3-(3-Chloro-4-fluorophenyl)-1-(3-hydroxypropyl)-1-(1-(1-oxo-1,2-dihydro-2,7-naphthyridin-4-yl)ethyl)urea]	–	–	EC50 [3]: 0.1 µM
CC(c1c[nH]c(=O)c2cc(F)c(F)cc12)N(C)C(=O)Nc1cc(Cl)c(F)c(Cl)c1 (single isomer, unassigned) [Compound 438, 3-(3,5-Dichloro-4-fluorophenyl)-1-(1-(6,7-difluoro-1-oxo-1,2-dihydroisoquinolin-4-yl)ethyl)-1-methylurea]	6.5	–	–
CC(c1c[nH]c(=O)c2cc(F)c(F)cc12)N(C)C(=O)NCc1ccc(F)c(Cl)c1 (single isomer, unassigned) [Compound 483, 3-(3-Chloro-4-fluorobenzyl)-1-(1-(6,7-difluoro-1-oxo-1,2-dihydroisoquinolin-4-yl)ethyl)-1-methylurea]	0.27	–	–
Cc1cc(NC(=O)N(C)C(C)c2c[nH]c(=O)c3c(F)c(F)ccc23)ccc1F (single isomer, unassigned) [Compound 441, 1-(1-(7,8-Difluoro-1-oxo-1,2-dihydroisoquinolin-4-yl)ethyl)-3-(4-fluoro-3-methylphenyl)-1-methylurea]	0.008	–	–

From patent publication US20230045421A1 (priority 2018, published 2023)
